Laboratory results published in patent US20040076668A1, “Controlled-release pharmaceutical formulations” (Pfizer Inc., priority 2002, published 2004).
Like-named read-outs stand apart in the source and are kept apart here.

Key:
[1] = Dissolution as a function of dissolution media pH; type: physicochemical; settings: at the lower pH (simulated gastric fluid pH 1.2); sink conditions cannot be maintained
Experimental: In order to determine the amount of compound (I) dissolved in simulated gastric fluid at pH 1.2, the amount remaining in the formulations was assayed and subtracted from the amount initially present. This procedure was employed because, at the lower pH, the solubility of compound (I) is lower and sink conditions cannot be maintained during dissolution. [formula] [formula]

[2] = Human in vivo oral dosage escalation studies: nausea and emesis side-effects; settings: human, in vivo, immediate-release formulations, human
Experimental: (§1) In Tables 13 and 14, standard deviation values are reported parenthetically. Furthermore, a “Yes” entry means greater than half of the subjects experienced the indicated side-effect, while a “No” entry indicates none, or less than half, of the subjects experienced the indicated side-effect.
(§2) The 3 mg dosages of compound (I) indicated in Tables 13 and 14 comprised the simultaneous administration of three 1 mg tablets of the SCT formulations of the present invention. Likewise, the 30 mg dosages of compound (I) comprised the simultaneous administration of three 10 mg tablets of the SCT formulations of the present invention.
(§3) The OPC immediate-release formulations comprising compound (I) were prepared extemporaneously by diluting powdered sodium citrate with water to a final concentration of 0.02 M and dissolving compound (I) therein with stirring. The prepared solution was then orally administered to the subject.
(§4) Analysis of such data will establish the relationship between the plasma pharmacokinetics and nausea and emesis side-effects in human subjects administered with dosages of compound (I). At Cmax values of less than 60 ng/mL, compound (I) was generally well tolerated. […] Dosages of compound (I) greater than 10 mg in the fasted state, and 30 mg in the fed state, could not be successfully administered due to the severity of the resulting nausea and emesis.
(§5) In some subjects given the 30 mg dosage in the fed state, the peak concentrations were in excess of 250 ng/mL, with the mean being 198 ng/mL. Predicated upon a Cmax threshold of 200 ng/mL for emesis, a much higher incidence of emesis would have been predicted to occur at this dosage.

human subjects = assay: as above; settings: for dosages that could not be successfully administered due to the severity of nausea and emesis: immediate-release, human
Experimental: as §1, §2, §3, §4, §5

[3] = concluded from the IR formulation data

C[C@@H](Oc1ccc(CNC(=O)c2cccnc2Oc2ccc3c(c2)OCO3)c(F)c1)C(=O)O [Compound (I), (R)-2-[4-({[2-(Benzo[1,3]dioxol-5-yloxy)-pyridine-3-carbonyl]-amino}-methyl)-3-fluoro-phenoxy]-propionic Acid]
solubility of compound (I) [1]: lower
Cmax ([2]; read-out: threshold for emesis (Cmax)): ~200 ng/mL
Cmax ([2]; read-out: threshold for nausea (Cmax)): ~60 ng/mL
Cmax/Tmax ratio that will maintain a low incidence for emesis (human subjects; [3]): less than 100 ng/ml/hr
Cmax/Tmax ratio that will maintain a low incidence of nausea (human subjects; [3]): less than 40 ng/ml/hr
dosages that could not be successfully administered due to the severity of nausea and emesis (human subjects; fasted state): greater than 10 mg
dosages that could not be successfully administered due to the severity of nausea and emesis (human subjects; fed state): > 30 mg
